Biological target: T1, CYP17A1 (Homo sapiens, UniProt P05093)
T1 sequence (P05093 1-508): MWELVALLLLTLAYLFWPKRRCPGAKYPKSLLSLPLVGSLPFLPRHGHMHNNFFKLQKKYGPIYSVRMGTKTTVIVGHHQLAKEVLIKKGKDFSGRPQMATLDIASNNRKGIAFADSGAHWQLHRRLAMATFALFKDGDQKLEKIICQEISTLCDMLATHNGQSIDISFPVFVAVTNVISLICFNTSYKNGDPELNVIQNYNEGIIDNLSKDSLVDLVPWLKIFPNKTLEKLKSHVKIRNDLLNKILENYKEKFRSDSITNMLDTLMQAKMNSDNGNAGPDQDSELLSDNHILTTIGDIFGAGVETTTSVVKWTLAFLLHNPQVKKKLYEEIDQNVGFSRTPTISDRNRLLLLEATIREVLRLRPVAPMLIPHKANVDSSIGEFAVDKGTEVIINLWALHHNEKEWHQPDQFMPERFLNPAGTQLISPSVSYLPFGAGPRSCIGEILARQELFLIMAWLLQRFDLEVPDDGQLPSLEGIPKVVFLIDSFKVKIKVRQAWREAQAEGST
Assay: […]α-hydroxylase activity, conversion of […]-progesterone to […]OH-progesterone, TLC; enzyme source not given
Assay type: cell-based

Row | IC50 [nM] | Structure (SMILES)
1 | 2600 | Cc1cc(Nc2cccnc2)ccc1-n1ccc2ccccc21 [compound 20]
2 | 1200 | c1ccc2c(c1)ncn2-c1ccc(NC2CCCCC2)cc1 [compound 2]
